In patent publication US20250351818A1, “PESTICIDAL BAIT COMPOSITION AND PROCESSES RELATED THERETO” (priority 2022, published 2025):

Legend:
[1] = test system: phytoplasma and spiroplasma (corn stunt); assay: Corn field naturally infected, foliar kasugamycin, severity of the stunts; type: in vivo; settings: 100 g ai/ha; for severity of the disease (percent of leaf area infected, visual): 1 application/week for 4 weeks
From the text: Another major problem is corn stunt disease. S. kunkelii, a spiroplasma often referred to as corn stunt spiroplasma and a Maize bushy stunt phytoplasma (MBSP) can both survive in the maize leafhopper (Dalbulus maidis), and it causes corn stunt disease. Foliar use of insecticides can be used to partially control Dalbulus maidis, however, the use of this method to control corn stunt disease is not very successful. kasugamycin (Ksg) is an aminoglycoside antibiotic. However, we have discovered that mixing kasugamycin with pesticides can control the Dalbulus maidis and S. kunkelii at the same time thereby helping to avoid corn stunt disease brought by the vector Dalbulus maidis. The amount of kasugamycin can vary from 20 g ai/ha to 100 g ai/ha in mixture with the insecticides when used in foliar applications, for example, spinetoram and sulfoxaflor at 18 g ai/ha+32 g ai/ha respectively, or spinetoram and methomyl at 18 g ai/ha and 220 g ai/ha, respectively. However, with the bait composition the amount of kasugamycin to use in the pesticidal bait compositions, based on the total weight of a pesticidal bait composition, is from about 2.0 weight percent to about 0.01 weight percent, preferably from about 1.0 weight percent to about 0.1 weight percent, and even more preferably from about 0.5 weight percent to about 0.25 weight percent. Of course, the kasugamycin weight percent will vary depending on various factors such as, local environmental conditions and pest control effects desired, among other factors.
A corn field with plants naturally infected by both phytoplasma and spiroplasma was sprayed with kasugamycin at 100 g ai/ha. The plants with 4 true-leaves were sprayed with 1 application/week for 4 weeks. Fifteen days after the first application and 15 days after the fourth spraying the severity of the stunts were evaluated visually, considering the percent of leaf area infected (showing symptoms). […]

[2] = test system: stunts (corn stunt disease); assay: Field corn, four foliar applications of pesticides solo and in mixture with kasugamycin, incidence of stunts and yield; type: in vivo; settings: four foliar applications 7 days apart from V2; 91 days after sowing
From the text: Another major problem is corn stunt disease. S. kunkelii, a spiroplasma often referred to as corn stunt spiroplasma and a Maize bushy stunt phytoplasma (MBSP) can both survive in the maize leafhopper (Dalbulus maidis), and it causes corn stunt disease. Foliar use of insecticides can be used to partially control Dalbulus maidis, however, the use of this method to control corn stunt disease is not very successful. kasugamycin (Ksg) is an aminoglycoside antibiotic. However, we have discovered that mixing kasugamycin with pesticides can control the Dalbulus maidis and S. kunkelii at the same time thereby helping to avoid corn stunt disease brought by the vector Dalbulus maidis. The amount of kasugamycin can vary from 20 g ai/ha to 100 g ai/ha in mixture with the insecticides when used in foliar applications, for example, spinetoram and sulfoxaflor at 18 g ai/ha+32 g ai/ha respectively, or spinetoram and methomyl at 18 g ai/ha and 220 g ai/ha, respectively. […]
Four foliar applications of pesticides solo and in mixture with kasugamycin were performed in corn plants in field starting at V2 (2 true-leaves) stage of the crop with 7 days apart. […] The incidence of plants with symptoms of stunts at 53 and 91 days after sowing and the yield were assessed. […]

C[C@H]1O[C@H](O[C@H]2[C@H](O)[C@@H](O)[C@@H](O)[C@H](O)[C@@H]2O)[C@@H](N)C[C@@H]1NC(=N)C(=O)O [kasugamycin]
severity of the disease (percent of leaf area infected, visual) ([1]; 15 days after the fourth application): 43% | severity of the disease (percent of leaf area infected, visual) ([1]; fifteen days after the first application): 27% | reduction of the progression of the disease vs untreated ([1]; 15 days after the fourth application (43% vs 54% untreated)): 20% | reduction of the progression of the disease in comparison with the untreated [2]: 11%
